Values after ≈ are worked out from the molar mass of the structure shown.
How the values were obtained:
[1] = system: Escherichia coli (E. coli) BAS849; test: Antibacterial activity, microbroth dilution MIC (Table 1); assay type: cell-based; conditions: microbroth dilution, super sensitive Gram-negative E. coli BAS849, read-out: MIC, BAS849
Method in brief: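 Potency is reported as minimum inhibitory concentration in μg/mL, determined by broth microdilution as the lowest level of compound that stops growth visible to the eye.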

[2] = system: Staphylococcus aureus (S. aureus) 29213; test: as above; assay type: cell-based; conditions: microbroth dilution, Gram-positive S. aureus 29213, read-out: MIC, 29213
Method in brief: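 Values are MICs (μg/mL): the smallest drug amount at which macroscopically visible bacterial growth is absent under assay conditions, from a microdilution method in broth.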

E. coli 25922 = test: as above; assay type: cell-based, Escherichia coli; conditions: Escherichia coli; microbroth dilution; control Gram-negative E. coli 25922 strain; read-out: MIC, 25922
Method in brief: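 Each strain is exposed to test compound in a microbroth dilution series; visible growth is scored macroscopically, and the lowest growth-free concentration is recorded as MIC in μg/mL.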

E. coli LZ3111 = test: Antibacterial activity, MIC, quinolone resistant strain (Table 2); assay type: cell-based; conditions: Escherichia coli, LZ3111, read-out: MIC LZ3111
Method in brief: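 Strain carries mutations conferring high-level quinolone resistance; tested by microbroth dilution, MIC recorded in μg/mL as lowest concentration preventing visible growth.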

[3] = system: Acinetobacter baumannii (A. baumannii) BAA747; test: Antibacterial activity, MIC (Table 4); assay type: cell-based; conditions: A. baumannii BAA747, read-out: MIC, BAA747
Method in brief: (§1)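 MIC in μg/mL by microbroth dilution, scored as the lowest level that suppresses visible growth.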

[4] = system: Klebsiella pneumoniae (K. pneumoniae) 35657; test: Antibacterial activity, MIC (Table 4); assay type: cell-based; conditions: K. pneumoniae 35657, read-out: MIC, 35657
Method in brief: as §1

A. baumannii MXX2240 = test: Antibacterial activity, MIC, resistant strain (Table 4); assay type: cell-based; conditions: Acinetobacter baumannii, MXX2240; resistant A. baumannii MMX2240, multi-drug resistant clinical isolate; read-out: MIC, MMX2240
Method in brief: as §1

K. pneumoniae MXX1232 = test: as above; assay type: cell-based; conditions: Klebsiella pneumoniae, MXX1232; resistant K. pneumoniae MMX1232, multi-drug resistant clinical isolate; read-out: MIC, MMX1232
Method in brief: as §1

[5] = system: Pseudomonas aeruginosa (P. aeruginosa) 27853; test: Antibacterial activity, MIC (Table 5); assay type: cell-based; conditions: P. aeruginosa 27853, read-out: MIC, 27853
Method in brief: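 Compounds are serially diluted in broth and inoculated with the organism. Growth is then inspected macroscopically, and the lowest concentration showing none is taken as the MIC (μg/mL).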

| SMILES | MIC [1] [µg/mL] | MIC [2] [µg/mL] | MIC (E. coli 25922) [µg/mL] | MIC (E. coli LZ3111) [µg/mL] | MIC [3] [µg/mL] | MIC [4] [µg/mL] | MIC (A. baumannii MXX2240) [µg/mL] | MIC (K. pneumoniae MXX1232) [µg/mL] | MIC [5] [µg/mL] |
| --- | --- | --- | --- | --- | --- | --- | --- | --- | --- |
| Cc1c(-c2ccc3nn(C)cc3c2)[nH]c(=O)c(C(=O)O)c1O [Cpd 395, 4-hydroxy-5-methyl-6-(2-methyl-2H-indazol-5-yl)-2-oxo-1,2-dihydropyridine-3-carboxylic acid] | 12.5 to 150 (≈ 41.8 to 501 µM) | 3.5 to 12.5 (≈ 11.7 to 41.8 µM) | 12.5 to 150 (≈ 41.8 to 501 µM) | 1 to 3.5 (≈ 3.34 to 11.7 µM) | 12.5 to 150 (≈ 41.8 to 501 µM) | 12.5 to 150 (≈ 41.8 to 501 µM) | 3.5 to 12.5 (≈ 11.7 to 41.8 µM) | 12.5 to 150 (≈ 41.8 to 501 µM) | 12.5 to 150 (≈ 41.8 to 501 µM) |
| Cc1c(-c2ccc3cnn(C)c3c2)[nH]c(=O)c(C(=O)O)c1O [Cpd 396, 4-hydroxy-5-methyl-6-(1-methyl-1H-indazol-6-yl)-2-oxo-1,2-dihydropyridine-3-carboxylic acid] | 12.5 to 150 (≈ 41.8 to 501 µM) | 12.5 to 150 (≈ 41.8 to 501 µM) | 12.5 to 150 (≈ 41.8 to 501 µM) | 1 to 3.5 (≈ 3.34 to 11.7 µM) | 12.5 to 150 (≈ 41.8 to 501 µM) | 12.5 to 150 (≈ 41.8 to 501 µM) | 3.5 to 12.5 (≈ 11.7 to 41.8 µM) | 12.5 to 150 (≈ 41.8 to 501 µM) | 12.5 to 150 (≈ 41.8 to 501 µM) |
| Cc1c(-c2ccc3cn(C)nc3c2)[nH]c(=O)c(C(=O)O)c1O [Cpd 397, 4-hydroxy-5-methyl-6-(2-methyl-2H-indazol-6-yl)-2-oxo-1,2-dihydropyridine-3-carboxylic acid] | 12.5 to 150 (≈ 41.8 to 501 µM) | 12.5 to 150 (≈ 41.8 to 501 µM) | 12.5 to 150 (≈ 41.8 to 501 µM) | 1 to 3.5 (≈ 3.34 to 11.7 µM) | 12.5 to 150 (≈ 41.8 to 501 µM) | 12.5 to 150 (≈ 41.8 to 501 µM) | 3.5 to 12.5 (≈ 11.7 to 41.8 µM) | 12.5 to 150 (≈ 41.8 to 501 µM) | 12.5 to 150 (≈ 41.8 to 501 µM) |
| Cc1c(-c2ccc3[nH]ncc3c2)[nH]c(=O)c(C(=O)O)c1O [Cpd 398, 4-hydroxy-6-(1H-indazol-5-yl)-5-methyl-2-oxo-1,2-dihydropyridine-3-carboxylic acid] | 12.5 to 150 (≈ 43.8 to 526 µM) | 12.5 to 150 (≈ 43.8 to 526 µM) | 12.5 to 150 (≈ 43.8 to 526 µM) | 3.5 to 12.5 (≈ 12.3 to 43.8 µM) | 12.5 to 150 (≈ 43.8 to 526 µM) | 12.5 to 150 (≈ 43.8 to 526 µM) | 12.5 to 150 (≈ 43.8 to 526 µM) | 12.5 to 150 (≈ 43.8 to 526 µM) | 12.5 to 150 (≈ 43.8 to 526 µM) |
| Cc1c(-c2ccc3cn[nH]c3c2)[nH]c(=O)c(C(=O)O)c1O [Cpd 399, 4-hydroxy-6-(1H-indazol-6-yl)-5-methyl-2-oxo-1,2-dihydropyridine-3-carboxylic acid] | 12.5 to 150 (≈ 43.8 to 526 µM) | 12.5 to 150 (≈ 43.8 to 526 µM) | 12.5 to 150 (≈ 43.8 to 526 µM) | 12.5 to 150 (≈ 43.8 to 526 µM) | 12.5 to 150 (≈ 43.8 to 526 µM) | 12.5 to 150 (≈ 43.8 to 526 µM) | 12.5 to 150 (≈ 43.8 to 526 µM) | 12.5 to 150 (≈ 43.8 to 526 µM) | 12.5 to 150 (≈ 43.8 to 526 µM) |
| CCc1c(-c2cn3ccccc3n2)[nH]c(=O)c(C(=O)O)c1O [Cpd 400, 5-ethyl-4-hydroxy-6-(imidazo[1,2-a]pyridin-2-yl)-2-oxo-1,2-dihydropyridine-3-carboxylic acid] | 1 to 3.5 (≈ 3.34 to 11.7 µM) | 12.5 to 150 (≈ 41.8 to 501 µM) | 12.5 to 150 (≈ 41.8 to 501 µM) | 12.5 to 150 (≈ 41.8 to 501 µM) | 12.5 to 150 (≈ 41.8 to 501 µM) | 12.5 to 150 (≈ 41.8 to 501 µM) | 12.5 to 150 (≈ 41.8 to 501 µM) | 12.5 to 150 (≈ 41.8 to 501 µM) | 12.5 to 150 (≈ 41.8 to 501 µM) |
| CCc1c(-c2cc3c(N(C)C)nc(C)cn3n2)[nH]c(=O)c(C(=O)O)c1O [Cpd 401, 6-(4-(dimethylamino)-6-methylpyrazolo[1,5-a]pyrazin-2-yl)-5-ethyl-4-hydroxy-2-oxo-1,2-dihydropyridine-3-carboxylic acid] | 3.5 to 12.5 (≈ 9.79 to 35 µM) | 3.5 to 12.5 (≈ 9.79 to 35 µM) | 12.5 to 150 (≈ 35 to 420 µM) | 12.5 to 150 (≈ 35 to 420 µM) | 12.5 to 150 (≈ 35 to 420 µM) | 12.5 to 150 (≈ 35 to 420 µM) | 12.5 to 150 (≈ 35 to 420 µM) | 12.5 to 150 (≈ 35 to 420 µM) | 12.5 to 150 (≈ 35 to 420 µM) |
| CCc1c(-c2cc3c(N4CCCC4)nc(C)cn3n2)[nH]c(=O)c(C(=O)O)c1O [Cpd 402, 5-ethyl-4-hydroxy-6-(6-methyl-4-(pyrrolidin-1-yl)pyrazolo[1,5-a]pyrazin-2-yl)-2-oxo-1,2-dihydropyridine-3-carboxylic acid] | 12.5 to 150 (≈ 32.6 to 391 µM) | 3.5 to 12.5 (≈ 9.13 to 32.6 µM) | 12.5 to 150 (≈ 32.6 to 391 µM) | 12.5 to 150 (≈ 32.6 to 391 µM) | 12.5 to 150 (≈ 32.6 to 391 µM) | 12.5 to 150 (≈ 32.6 to 391 µM) | 12.5 to 150 (≈ 32.6 to 391 µM) | 12.5 to 150 (≈ 32.6 to 391 µM) | 12.5 to 150 (≈ 32.6 to 391 µM) |
| CCc1c(-c2cccc3c2ccn3C)[nH]c(=O)c(C(=O)O)c1O [Cpd 403, 5-ethyl-4-hydroxy-6-(1-methyl-1H-indol-4-yl)-2-oxo-1,2-dihydropyridine-3-carboxylic acid] | 3.5 to 12.5 (≈ 11.2 to 40 µM) | 12.5 to 150 (≈ 40 to 480 µM) | 12.5 to 150 (≈ 40 to 480 µM) | 12.5 to 150 (≈ 40 to 480 µM) | 12.5 to 150 (≈ 40 to 480 µM) | 12.5 to 150 (≈ 40 to 480 µM) | 12.5 to 150 (≈ 40 to 480 µM) | 12.5 to 150 (≈ 40 to 480 µM) | 12.5 to 150 (≈ 40 to 480 µM) |
